Reference: ChEMBL document CHEMBL3864169, “Quinazoline Carboxamides as Selective Antagonists of Adenosine 2A Receptor” (ACS Med Chem Lett, 2016)

Target: Adenosine receptor A2a (Homo sapiens, UniProt P29274)
Assay: Displacement of [3H]5-amino-7-[2- phenethyl]-2-(furan-2-yl)-7H-pyrazolo[4,3-e][l,2,4]triazolo[l,5-c]pyrimidine from human adenosine A2A receptor expressed in HEK293 cell membranes measured after 1 hr by TopCount scintillation counting method

Sequence of Adenosine receptor A2a (P29274 whole entry): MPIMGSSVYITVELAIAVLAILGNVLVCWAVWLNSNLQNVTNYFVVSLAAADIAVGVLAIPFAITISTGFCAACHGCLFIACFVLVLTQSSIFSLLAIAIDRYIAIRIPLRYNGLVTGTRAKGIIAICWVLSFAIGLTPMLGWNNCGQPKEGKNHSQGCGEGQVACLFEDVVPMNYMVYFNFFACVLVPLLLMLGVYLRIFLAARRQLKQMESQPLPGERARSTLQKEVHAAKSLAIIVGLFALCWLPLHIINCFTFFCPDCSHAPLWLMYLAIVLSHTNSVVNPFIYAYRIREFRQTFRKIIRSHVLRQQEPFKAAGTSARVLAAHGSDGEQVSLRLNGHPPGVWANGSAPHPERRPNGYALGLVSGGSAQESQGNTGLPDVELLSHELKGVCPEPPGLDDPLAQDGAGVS

Ki: 1 nM
SMILES: CC(C)OCc1cccc(CNC(=O)c2nc(N)nc3c(F)cccc23)n1
